Entries after “also recorded” stand apart in the source; their conditions may differ.
What was measured:
Trypsin = biological target: T1, Trypsin (Bos taurus, UniProt P00760); assay: Trypsin enzyme activity test (BAPNA substrate, absorbance at 405 nm); format: biochemical, Rind; details: for Hemmwirkung (Minderung der Trypsin-Aktivität): inhibitor concentration 0,01 % (w/v); for Hemmung von Trypsin: result in words over the tested concentration range
T1 construct: aus der vom Pankreas gebildeten Vorstufe Trypsinogen durch Abspaltung eines Hexapeptids entsteht; purchased Sigma; host or cells: bovine pancreas (Rinderpankreas)
T1 sequence (P00760 24-246): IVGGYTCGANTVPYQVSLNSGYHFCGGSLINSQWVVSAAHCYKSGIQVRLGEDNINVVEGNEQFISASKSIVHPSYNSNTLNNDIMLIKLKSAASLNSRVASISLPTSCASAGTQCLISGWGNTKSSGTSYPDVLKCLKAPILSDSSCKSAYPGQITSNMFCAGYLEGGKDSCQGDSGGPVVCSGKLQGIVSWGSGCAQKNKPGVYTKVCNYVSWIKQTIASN
Source text: (§1) Da die hauteigenen, am Desmosomenabbau beteiligten Proteasen nicht in ausreichender Menge zur Verfügung standen, dienten die Serin-Proteasen Trypsin und Chymotrypsin (Sigma) aus Rinderpankreas als Modellenzym, um die Hemmwirkung des erfindungsgemäß verwendeten Inhibitors N-CBZ-Gly-Pro-Phe-Pro-Leu, zu testen. Als Vergleich wurde auch das als t-PA-Inhibitor (tissue-type plasminogen activator) bekannte t-AMCHA [trans-4(Aminomethyl)-cyclohexancarbonsäure] getestet.
Auch der Nachweis der Trypsin-Enzymaktivität erfolgt mit einer Modifikation analog zu den Angaben im Sigma Quality Control Test Procedure-Datenblatt für Trypsin. Anstelle von Aprotinin (Reagens F) wurden hier die erfindungsgemäßen Inhibitoren eingesetzt. Hierfür wurde eine Konzentrationsreihe der Inhibitoren in Reagens E angesetzt. Die Enzymaktivität wurde durch Umsetzung des Substrates Nα-Benzoyl-DL-Arginin-p-Nitroanilin (BAPNA) zu Nα-Benzoyl-DL-Arginin und p-Nitroanilin spektrophotometrisch bestimmt. Die Absorption des proteolytisch abgespaltenen p-Nitroanilins wird bei 405 nm gemessen.
(§2) Die Reaktionskinetiken wurden je 5 Minuten bei 25 °C detektiert, wobei der lineare Anstieg der Absorption (A) pro Zeiteinheit (t) ein Maß für die Aktivität des Enzyms (ΔA/Δt) ist. Die Aktivität des Enzyms in Abwesenheit eines Proteinase-Inhibitors, (ΔA1/Δt1 ), wurde auf 100% gesetzt. Unter analogen Bedingungen wurden die Aktivitäten in Gegenwart eines Inhibitors (ΔA2/Δt2) bestimmt. Die Hemmwirkung oder Minderung der Enzymaktivität entspricht dann: 100% - (ΔA2/Δt2 )/( ΔA1/Δt1)%.

Chymotrypsin = biological target: T2, Chymotrypsin (Bos taurus, UniProt P00766); assay: Chymotrypsin enzyme activity test (BTEE substrate, absorbance at 256 nm); format: biochemical, Rind; details: for Hemmwirkung (Minderung der Chymotrypsin-Aktivität): 25 °C; for Hemmung von Chymotrypsin: result in words over the tested concentration range
T2 construct: Chymotrypsin entsteht im Pankreas aus inaktiven Vorstufen, sogenannten Zymogenen, durch Einwirkung von Trypsin; purchased Sigma; host or cells: bovine pancreas (Rinderpankreas)
Source text: as §1
Der Nachweis der Chymotrypsin-Enzymaktivität erfolgt mit einer Modifikation analog zu den Angaben im Sigma Quality Control Test Procedure-Datenblatt für Chymotrypsin. Bei Ansätzen ohne Inhibitor wurden 1,42 mL Reagens A (80 mM Tris/HCl-Puffer, pH = 7,8; 25°C) zum Testansatz zugegeben. Bei Ansätzen mit Inhibitor wurden 1,32 mL Reagens A zum Testansatz zugegeben sowie 0,1 mL einer Lösung des entsprechenden Inhibitors in Reagens A (Konzentrationsreihe). Die Enzymaktivität wurde durch Umsetzung des Substrates N-Benzoyl-L-Tyrosinethylester (BTEE) zu N-Benzoyl-L-Tyrosin und Ethanol spektrophotometrisch bestimmt. Die Absorption des proteolytisch abgespaltenen N-Benzoyl-L-Tyrosins wird bei 256 nm gemessen.
as §2

[1] = test system: Desquamation des Stratum corneum; assay: Desquamation test on human skin biopsies (detergent-induced corneocyte shedding, corneocyte count); format: cell-based; details: for Desquamation der Humanhaut (Korneozyten-Abschuppung): result in words over the tested concentration range
Source text: Aus frischen Humanhautexplantaten (aus Mammareduktion) wurden 8mm^2-große Hautstücke ausgestanzt und mit einer Mischung aus Detergentien (Na-Dodecylsulfat, N,N-Dimethyldodecylaminoxid) in Abwesenheit und in Gegenwart der Inhibitoren behandelt. Unter dem Einfluß der Detergentien wird eine verstärkte Abschuppung (Desquamation) der Homschicht (Stratum corneum) künstlich induziert, also die Ausbildung trockener Haut im Versuch nachgeahmt. Die Anzahl abgeschuppter Hornzellen (Korneozyten) wurde unter dem Mikroskop in einer Schilling-Zählkammer bestimmt. Eine Verringerung der Korneozytenzahl weist auf eine hemmende Wirkung der getesteten potentiellen Inhibitoren hin.
Die Inhibitoren wurden in den entsprechenden Konzentrationen (vgl. Tabellen der Beispiele 7-12) im Inkubationspuffer angesetzt. Dieser bestand aus 0,1 M TRIS-HCl-Puffer (pH 8) mit 0,1 Gew.% Na-Azid und den Detergenzien Na-Dodecylsulfat (0,2 mM) und N,N-Dimethyldodecylaminoxid (8 mM) sowie EDTA (5 mM). Diese Inkubationspufferlösungen mit variierender Konzentration des Inhibitors werden nachfolgend als Testlösungen bezeichnet.
Es wurden zwei Arten von Blindkontrollen durchgeführt, eine Positiv- und eine Negativkontrolle. Für die sogenannte Positivkontrolle wurde nur der Inkubationspuffer verwendet, d. h. ohne Zusatz der Inhibitoren. Für die sogenannte Negativkontrolle wurde eine 5 mM Lösung von EDTA in TRIS-HCl-Puffer eingesetzt, d. h. ohne Zusatz der Detergentien.
Pro Reaktionsansatz wurden 0,5 mL der jeweiligen Testlösung oder des für die Blindkontrollen verwendeten Puffergemisches in verschließbaren Reaktionsgefäßen vorgelegt. Alle Ansätze wurden in vierfacher Ausfertigung durchgeführt, um die Reproduzierbarkeit der Ergebnisse zu gewährleisten.
Die Humanhaut wurde nach der Explantation in einer trockenen, sterilen Petrischale auf Kühlakkus transportiert. Nach Entfernung des Unterhautfett- und des Bindegewebes wurden mit Hilfe von sterilen Stanzen 8 mm^2-große Hautstücke präpariert. Diese wurden 15-20 min in steriler, physiologischer NaCl (0,9 %) gewaschen, zu den Reaktionsansätzen gegeben (1 Hautstück/Reaktionsansatz) und 44 Stunden bei 37° C inkubiert.
Nach Beendigung der Inkubationsphase wurden die Reaktionsgefäße 30 Sekunden auf einem Vortex-Mixer geschüttelt, um noch lose anhaftende Komeozyten von den Hautstücken abzulösen. Die Hautstücke wurden entnommen und die verbleibende Dispersion wurde 8 Minuten bei 11.000U/min zentrifugiert, um die Korneozyten zu isolieren. Der detergenshaltige Überstand (0,4 mL) wurde verworfen und der Rückstand mit 0,4 ml Aqua dest. gewaschen. Nach nochmaligem Zentrifugieren wurde der Überstand (0.4 mL) wiederum verworfen, das verbleibende Zellpellet in 0,4 mL Aqua dest. aufgenommen und die abgelösten Korneozyten in einer Schillingzählkammer unter einem Lichtmikroskop ausgezählt.
Nachfolgende Tabellen geben eine Zusammenstellung über die Anzahl abgelöster Korneozyten: • nach Behandlung der Haut-Biopsien mit einem Detergentiengemisch in Abwesenheit der Inhibitoren (Positivkontrolle) • nach Behandlung der Haut-Biopsien mit einer Pufferlösung in Abwesenheit der Detergentien und Inhibitoren (Negativkontrolle) • nach Behandlung der Haut-Biopsien mit einem Detergentiengemisch, welches die Inhibitoren in variierender Konzentration enthält.

[2] = Homo sapiens, pH 8, inhibitor 0,5 % (w/v), corneocyte count, positive control = 100 %, 44 h, 37° C, read-out: Desquamation an Humanhaut ex vivo
[3] = Homo sapiens, pH 8, inhibitor 1,0 % (w/v), corneocyte count, positive control = 100 %, 44 h, 37° C, read-out: Desquamation an Humanhaut ex vivo

Compound: NC[C@H]1CC[C@H](C(=O)O)CC1 [t-AMCHA, trans-4(Aminomethyl)-cyclohexancarbonsäure]
- inhibition at 0.1 % (Trypsin; 5 min, inhibitor concentration 0,1 % (w/v), 25 °C, read-out: Hemmwirkung (Minderung der Trypsin-Aktivität)): 51%
- inhibition at 0.05 % (Trypsin; 5 min, inhibitor concentration 0,05 % (w/v), 25 °C, read-out: Hemmwirkung (Minderung der Trypsin-Aktivität)): 36%
- inhibition at 0.5 % (Trypsin; 5 min, inhibitor concentration 0,5 % (w/v), 25 °C, read-out: Hemmwirkung (Minderung der Trypsin-Aktivität)): 85%
- inhibition at 1 % (Trypsin; 5 min, inhibitor concentration 1,0 % (w/v), 25 °C, read-out: Hemmwirkung (Minderung der Trypsin-Aktivität)): 93%
- Hemmwirkung (Minderung der Trypsin-Aktivität) (Trypsin; 25 °C): 9%
- Hemmung von Trypsin (Trypsin): in Abhängigkeit von der Inhibitor-Konzentration beeinträchtigt
- Hemmwirkung (Minderung der Chymotrypsin-Aktivität) (Chymotrypsin; inhibitor concentration 0,01 % (w/v)): keine Hemmwirkung messbar
- Hemmwirkung (Minderung der Chymotrypsin-Aktivität) (Chymotrypsin; inhibitor concentration 0,1 % (w/v)): - " -
- Hemmwirkung (Minderung der Chymotrypsin-Aktivität) (Chymotrypsin; inhibitor concentration 0,05 % (w/v)): - " -
- Hemmwirkung (Minderung der Chymotrypsin-Aktivität) (Chymotrypsin; inhibitor concentration 0,5 % (w/v)): - " -
- Hemmwirkung (Minderung der Chymotrypsin-Aktivität) (Chymotrypsin; inhibitor concentration 1,0 % (w/v)): - " -
- Hemmung von Chymotrypsin (Chymotrypsin): nicht beeinträchtigt
- activity at 0.5 % [1, 2]: 51.3%
- activity at 1 % [1, 3]: 44%
- activity at 2.5 % ([1]; Homo sapiens, pH 8, inhibitor 2,5 % (w/v), corneocyte count, positive control = 100 %, 44 h, 37° C, read-out: Desquamation an Humanhaut ex vivo): 37.1%
- Desquamation der Humanhaut (Korneozyten-Abschuppung) [1]: Desquamationsinhibitor mit konzentrationsabhängigem Profil; also recorded: signifikant reduziert

Compound: O=C(/C=C/c1ccc(O)c(O)c1)O[C@H](Cc1ccc(O)c(O)c1)C(=O)O [Rosmarinsäure]
- Hemmwirkung (Minderung der Trypsin-Aktivität) (Trypsin; 25 °C): 61%
- Hemmung von Trypsin (Trypsin): starke, konzentrationsabhängige Hemmung
- Hemmwirkung (Minderung der Chymotrypsin-Aktivität) (Chymotrypsin; inhibitor concentration 0,001 % (w/v)): keine Hemmwirkung messbar
- Hemmwirkung (Minderung der Chymotrypsin-Aktivität) (Chymotrypsin; inhibitor concentration 0,005 % (w/v)): 2%
- Hemmwirkung (Minderung der Chymotrypsin-Aktivität) (Chymotrypsin; inhibitor concentration 0,0075 % (w/v)): 7%
- Hemmung von Chymotrypsin (Chymotrypsin): gering
- activity at 0.1 % ([1]; Homo sapiens, pH 8, inhibitor 0,1 % (w/v), corneocyte count, positive control = 100 %, 44 h, 37° C, read-out: Desquamation an Humanhaut ex vivo): 82.5%
- activity at 0.5 % [1, 2]: 60%
- activity at 1 % [1, 3]: 33.8%
- Desquamation an Humanhaut ex vivo ([1]; inhibitor 1,0 % (w/v), corneocyte count, positive control = 100 %, 44 h, 37° C): 33,8%
- Desquamation der Humanhaut (Korneozyten-Abschuppung) [1]: konzentrationsabhängige Reduktion; also recorded: signifikant reduziert

Compound: NCCc1ccc(S(=O)(=O)F)cc1 [Pefabloc® SC, 4-(2-Aminoethyl)phenylsulfonylfluorid]
- Hemmung von Trypsin (Trypsin): starke, konzentrationsabhängige Hemmung
- Hemmung von Trypsin (Trypsin; listed as Pefabloc®): effektiver Inhibitor
- Hemmung von Chymotrypsin (Chymotrypsin): starke, konzentrationsabhängige Hemmung
- Hemmung von Chymotrypsin (Chymotrypsin; listed as Pefabloc®): effektiver Inhibitor
- Desquamation an Humanhaut ex vivo ([1]; inhibitor 0,1 % (w/v), corneocyte count, positive control = 100 %, 44 h, 37° C): 34%
- Desquamation an Humanhaut ex vivo ([1]; inhibitor 0,5 % (w/v), corneocyte count, positive control = 100 %, 44 h, 37° C): 11%
- Abschuppung reduziert um ([1]; inhibitor 0,5 %, reduction versus positive control): ~90%
